Source: ChEMBL document CHEMBL5370585, “Exploration and Biological Evaluation of 1,3-Diamino-7H-pyrrol[3,2-f]quinazoline Derivatives as Dihydrofolate Reductase Inhibitors” (J Med Chem, 2023)
Values after ≈ are worked out from the molar mass of the structure shown.

What was measured:
[1] = AUC (0 to infinity) in ICR mouse at 10 mg/kg, ip measured after 5 to 24 hrs post administration by LC-MS/MS analysis; type: ADME, organism-based; parameters: time upper 24 hrs, dose 10 mg/kg, time lower 5 hrs, route ip; conditions: ICR, in vivo
[2] = Stability in mouse plasma assessed as parent compound remaining at 5 ug/ml measured after 30 mins by LC-MS/MS analysis; type: ADME, cell-free; conditions: at 5 µg/mL, read-out: Stability
Staphylococcus aureus [3] = experiment: Antibacterial activity against Staphylococcus aureus ATCC 29213 incubated for 16 to 18 hrs by CLSI based broth dilution method; type: functional; conditions: time 16-18 hrs
[4] = Stability in mouse plasma assessed as parent compound remaining at 1 ug/ml measured after 45 mins by LC-MS/MS analysis; type: ADME, cell-free; conditions: at 1 µg/mL, read-out: Stability
HCT-116 = experiment: Cytotoxicity against human HCT-116 cells measured after 72 hrs by MTT assay; type: functional, cell-based; conditions: HCT-116, 72 h
[5] = Stability in mouse plasma assessed as parent compound remaining at 1 ug/ml measured after 1440 mins by LC-MS/MS analysis; type: ADME, cell-free; conditions: at 1 µg/mL, read-out: Stability
Enterococcus faecalis = experiment: Antibacterial activity against Enterococcus faecalis ATCC 29212 incubated for 16 to 18 hrs by CLSI based broth dilution method; type: functional; conditions: time 16-18 hrs
EMT6 [6] = experiment: Antitumor activity against mouse EMT6 cells xenografted in BALB/c mouse model assessed as tumor weight at 2.5 mg/kg,ip administered every 3 days for 14 consecutive days (reference value: 1.53 +/-0.26g); type: functional; conditions: time 14 day
[7] = Toxicity in BALB/c mouse xenografted with mouse EMT6 cells assessed as effect on body weight at 5 mg/kg, ip measured on day 14 (reference value: 21.6 +/-0.6g); type: organism-based; conditions: in vivo, 336 h, time 14 day
[8] = Stability in mouse plasma assessed as parent compound remaining at 5 ug/ml measured after 45 mins by LC-MS/MS analysis; type: ADME, cell-free; conditions: at 5 µg/mL, read-out: Stability
[9] = Stability in mouse plasma assessed as parent compound remaining at 1 ug/ml measured after 120 mins by LC-MS/MS analysis; type: ADME, cell-free; conditions: at 1 µg/mL, read-out: Stability
[10] = Stability in mouse plasma assessed as parent compound remaining at 1 ug/ml measured after 60 mins by LC-MS/MS analysis; type: ADME, cell-free; conditions: at 1 µg/mL, read-out: Stability
[11] = Stability in mouse plasma assessed as parent compound remaining at 5 ug/ml measured after 240 mins by LC-MS/MS analysis; type: ADME, cell-free; conditions: at 5 µg/mL, read-out: Stability
Escherichia coli = experiment: Antibacterial activity against Escherichia coli ATCC 25922 incubated for 16 to 18 hrs by CLSI based broth dilution method; type: functional; conditions: time 16-18 hrs
[12] = Stability in mouse plasma assessed as parent compound remaining at 1 ug/ml measured after 10 mins by LC-MS/MS analysis; type: ADME, cell-free; conditions: at 1 µg/mL, read-out: Stability
EMT6 [13] = experiment: Antitumor activity against mouse EMT6 cells xenografted in ip dosed BALB/c mouse model assessed as delay in tumor progression administered every 3 days for 14 consecutive days; type: functional, organism-based; conditions: time 14.0 day
[14] = Metabolic stability in mouse liver microsomes assessed as hepatic clearance at 1 uM measured upto 60 mins in presence of NADPH by LC-MS/MS analysis; type: ADME, Microsome; conditions: 1 h
MCF7 = experiment: Cytotoxicity against human MCF7 cells measured after 72 hrs by MTT assay; type: functional, cell-based; conditions: MCF7, 72 h
[15] = Toxicity in BALB/c mouse xenografted with mouse EMT6 cells assessed as effect on body weight at 2.5 mg/kg, ip measured on day 1 (reference value: 18.5 +/-0.5g); type: organism-based; conditions: in vivo, 24 h, time 1 day
EMT6 [16] = experiment: Antitumor activity against mouse EMT6 cells xenografted in BALB/c mouse model assessed as tumor weight at 5 mg/kg,ip administered every 3 days for 14 consecutive days (reference value: 1.53 +/-0.26g); type: functional; conditions: time 14 day
[17] = Stability in mouse plasma assessed as parent compound remaining at 1 ug/ml measured after 30 mins by LC-MS/MS analysis; type: ADME, cell-free; conditions: at 1 µg/mL, read-out: Stability
[18] = Stability in mouse plasma assessed as parent compound remaining at 5 ug/ml measured after 10 mins by LC-MS/MS analysis; type: ADME, cell-free; conditions: at 5 µg/mL, read-out: Stability
[19] = Stability in mouse plasma assessed as parent compound remaining at 1 ug/ml measured after 20 mins by LC-MS/MS analysis; type: ADME, cell-free; conditions: at 1 µg/mL, read-out: Stability
[20] = Metabolic stability in mouse liver microsomes assessed as half life at 1 uM measured upto 60 mins in presence of NADPH by LC-MS/MS analysis; type: ADME, Microsome
[21] = Toxicity in BALB/c mouse xenografted with mouse EMT6 cells assessed as effect on body weight at 2.5 mg/kg, ip measured on day 14 (reference value: 21.6 +/-0.6g); type: organism-based; conditions: in vivo, 336 h, time 14 day
[22] = Tmax in ICR mouse at 10 mg/kg, ip measured after 5 to 24 hrs post administration by LC-MS/MS analysis; type: ADME, organism-based; conditions: in vivo, time 5-24 hrs
[23] = Toxicity in BALB/c mouse xenografted with mouse EMT6 cells assessed as effect on body weight at 5 mg/kg, ip measured on day 1 (reference value: 18.5 +/-0.5g); type: organism-based; conditions: in vivo, 24 h, time 1 day
[24] = Stability in mouse plasma assessed as parent compound remaining at 5 ug/ml measured after 20 mins by LC-MS/MS analysis; type: ADME, cell-free; conditions: at 5 µg/mL, read-out: Stability
[25] = Stability in mouse plasma assessed as parent compound remaining at 1 ug/ml measured after 240 mins by LC-MS/MS analysis; type: ADME, cell-free; conditions: at 1 µg/mL, read-out: Stability
Staphylococcus aureus [26] = experiment: Antibacterial activity against methicillin-resistant Staphylococcus aureus ATCC 43300 incubated for 16 to 18 hrs by CLSI based broth dilution method; type: functional; conditions: time 16-18 hrs
EMT6 [27] = experiment: Antitumor activity against mouse EMT6 cells xenografted in BALB/c mouse model assessed as tumor growth inhibition at 2.5 mg/kg,ip administered every 3 days for 14 consecutive days relative to control; type: functional; parameters: scale not given: the % may be the effect or the level left; conditions: time 14 day
[28] = Metabolic stability in mouse liver microsomes assessed as intrinsic clearance at 1 uM measured upto 60 mins in presence of NADPH by LC-MS/MS analysis; type: ADME, Microsome; conditions: read-out: CLH
[29] = AUC (0 to t) in ICR mouse at 10 mg/kg, ip measured after 5 to 24 hrs post administration by LC-MS/MS analysis; type: ADME, organism-based; parameters: time 5-24 hrs, dose 10 mg/kg, route ip; conditions: ICR, in vivo
[30] = Half life in ICR mouse at 10 mg/kg, ip measured after 5 to 24 hrs post administration by LC-MS/MS analysis; type: ADME, organism-based; conditions: in vivo, time 5-24 hrs
[31] = Stability in mouse plasma assessed as parent compound remaining at 5 ug/ml measured after 1440 mins by LC-MS/MS analysis; type: ADME, cell-free; conditions: at 5 µg/mL, read-out: Stability
[32] = Stability in mouse plasma assessed as parent compound remaining at 5 ug/ml measured after 120 mins by LC-MS/MS analysis; type: ADME, cell-free; conditions: at 5 µg/mL, read-out: Stability
EMT6 [33] = experiment: Antitumor activity against mouse EMT6 cells xenografted in BALB/c mouse model assessed as tumor growth inhibition at 5 mg/kg,ip administered every 3 days for 14 consecutive days relative to control; type: functional; parameters: scale not given: the % may be the effect or the level left; conditions: time 14 day
Acinetobacter baumannii = experiment: Antibacterial activity against Acinetobacter baumannii ATCC 19606 incubated for 16 to 18 hrs by CLSI based broth dilution method; type: functional; conditions: time 16-18 hrs
HGC-27 = experiment: Cytotoxicity against human HGC-27 cells measured after 72 hrs by MTT assay; type: functional, cell-based; conditions: HGC-27, 72 h
[34] = molecular target: T1, Dihydrofolate reductase (Homo sapiens) (UniProt P00374); experiment: Inhibition of human DHFR at 1 uM incubated for 10 mins in presence of NADPH by colorimetry based analysis relative to control
T1 sequence (whole entry): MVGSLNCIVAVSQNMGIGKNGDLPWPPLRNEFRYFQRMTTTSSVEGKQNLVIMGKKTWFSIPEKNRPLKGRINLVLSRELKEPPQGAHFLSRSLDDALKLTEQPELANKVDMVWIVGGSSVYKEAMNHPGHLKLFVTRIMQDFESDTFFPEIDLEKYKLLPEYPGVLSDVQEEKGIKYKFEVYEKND

[35] = test system: Staphylococcus epidermidis; experiment: Antibacterial activity against Staphylococcus epidermidis ATCC 12228 incubated for 16 to 18 hrs by CLSI based broth dilution method; type: functional; conditions: time 16-18 hrs
[36] = Stability in mouse plasma assessed as parent compound remaining at 5 ug/ml measured after 60 mins by LC-MS/MS analysis; type: ADME, cell-free; conditions: at 5 µg/mL, read-out: Stability
HepG2 = experiment: Cytotoxicity against human HepG2 cells measured after 72 hrs by MTT assay; type: functional, cell-based; conditions: HepG2, 72 h
[37] = Toxicity in BALB/c mouse xenografted with mouse EMT6 cells at 2.5 mg/kg, ip administered every 3 days for 14 consecutive days; type: organism-based; conditions: in vivo, 336 h, time 14 day

## Cc1cc2c3c(N)nc(N)nc3ccc2n1Cc1nc2ccccc2s1
[1]
  AUC(0-inf): 2.74 µg·h/mL
[2]
  remaining at 0.5 h, 5 ug/ml: 98.3%
Staphylococcus aureus [3]
  MIC: 0.5 mg/L (≈ 1.39 µM)
[4]
  remaining at 0.75 h, 1 ug/ml: 98.9%
HCT-116
  IC50: 1.95 µM
[5]
  remaining at 24 h, 1 ug/ml: 97.3%
Enterococcus faecalis
  MIC: 0.5 mg/L (≈ 1.39 µM)
EMT6 [6]
  Activity: 0.44 g
[7]
  Activity: 17.6 g
[8]
  remaining at 0.75 h, 5 ug/ml: 97.9%
[9]
  remaining at 2 h, 1 ug/ml: 98.4%
[10]
  remaining at 1 h, 1 ug/ml: 98.5%
[11]
  remaining at 4 h, 5 ug/ml: 97.5%
Escherichia coli
  MIC: 1 mg/L (≈ 2.77 µM)
[12]
  remaining at 10 min, 1 ug/ml: 99.6%
EMT6 [13]
  Activity: Dose-Dependent Effect
[14]
  CLH: 2.3 L/h/kg
MCF7
  IC50: 0.43 µM
[15]
  Activity: 18.4 g
EMT6 [16]
  Activity: 0.95 g
[17]
  remaining at 0.5 h, 1 ug/ml: 99.1%
[18]
  remaining at 10 min, 5 ug/ml: 99%
[19]
  remaining at 20 min, 1 ug/ml: 99.3%
[20]
  half-life at 1 µM: 1.37 h
[21]
  Activity: 14.9 g
[22]
  Tmax: 0.83 h
[23]
  Activity: 18.3 g
[24]
  remaining at 20 min, 5 ug/ml: 98.6%
[25]
  remaining at 4 h, 1 ug/ml: 98.5%
Staphylococcus aureus [26]
  MIC: 0.25 mg/L (≈ 0.694 µM)
EMT6 [27]
  Activity: 71%
[28]
  microsomal CLint at 1 µM: 16.9 µL/min/mg
[29]
  AUC(0-t): 2.28 µg·h/mL
[30]
  half-life: 9.81 h
[31]
  remaining at 24 h, 5 ug/ml: 97%
[32]
  remaining at 2 h, 5 ug/ml: 97.3%
EMT6 [33]
  Activity: 37.7%
Acinetobacter baumannii
  MIC: 4 mg/L (≈ 11.1 µM)
HGC-27
  IC50: 0.54 µM
[34]
  inhibition: 99.1%
[35]
  MIC: ≤ 0.004 mg/L
[36]
  remaining at 1 h, 5 ug/ml: 97.8%
HepG2
  IC50: 0.18 µM
[37]
  Activity: Non-Toxic
